According to PubChem BioAssay (NCI):
Several values for one entry are separate records, joined by “and”; a condition that tells them apart may be missing. Identical values can stand only once.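 Cultured in 96-well plates, cells were exposed to test compound for 48 hours across five concentrations. GI50: concentration for 50% inhibition of growth. Definition used: TGI = concentration required for complete inhibition of growth.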 Where a SMILES comes first, the peptide text is derived from it. [ ]: non-standard residue; d: D form. The star is where a group is joined. ξ: configuration not given here. ξD = NC(CC(=O)O)C(=O)O; Ac3c = NC1(C(=O)O)CC1; Boc = CC(C)(C)OC(=O)*; OBn = c1ccc(CO*)cc1

Legend:
Test in all cases: DTP human tumour cell line panel, 48 h
A498 renal = tested on: A498 renal
A549 NSCLC = tested on: A549 NSCLC
786-0 renal = tested on: 786-0 renal
COLO 205 colon = tested on: COLO 205 colon
UACC-257 melanoma = tested on: UACC-257 melanoma
SF-268 CNS = tested on: SF-268 CNS
SW-620 colon = tested on: SW-620 colon
SK-MEL-5 melanoma = tested on: SK-MEL-5 melanoma
HL-60(TB) leukemia = tested on: HL-60(TB) leukemia
KM12 colon = tested on: KM12 colon

Row | SMILES | TGI (A498 renal) [µM] | TGI (A549 NSCLC) | TGI (786-0 renal) | TGI (COLO 205 colon) [µM] | TGI (UACC-257 melanoma) | TGI (SF-268 CNS) | TGI (SW-620 colon) [µM] | TGI (SK-MEL-5 melanoma) [µM] | TGI (HL-60(TB) leukemia) [µM] | TGI (KM12 colon) [µM] | GI50 (UACC-257 melanoma) [µM] | GI50 (HL-60(TB) leukemia) [µM] | GI50 (A498 renal) [µM] | GI50 (A549 NSCLC) [µM] | GI50 (COLO 205 colon) [µM] | GI50 (SF-268 CNS) [µM] | GI50 (SW-620 colon) [µM] | GI50 (SK-MEL-5 melanoma) [µM] | GI50 (KM12 colon) [µM]
1 | O=C1CCC2(CC1CCSc1ccccc1)OCCO2 (centres undefined) | > 100 | > 100 µM | > 100 µM | > 100 | > 100 µM | > 100 µM | > 100 | > 100 | > 100 | > 100 |  |  |  |  |  |  |  |  | 
2 | COCN1CCN=c2c1c1c3c(c4ccccc4n23)CCC1 | > 100 | > 100 µM | > 100 µM | > 100 | > 100 µM | > 100 µM | > 100 | > 100 | > 100 | > 100 |  |  |  |  |  |  |  |  | 
3 | Cc1cn(CC2=NCCCN2)c(=O)[nH]c1=O | > 100 | > 100 µM | > 100 µM | > 100 | > 100 µM | > 100 µM | > 100 | > 100 |  |  |  |  |  |  |  |  |  |  | 
4 | COc1c(OC)c(O)c2c(=O)c(OC)c(-c3ccc4c(c3)OCO4)oc2c1O | > 100 | > 100 µM | > 100 µM | > 100 | > 100 µM | > 100 µM | > 100 | > 100 | > 100 | > 100 |  |  |  |  |  |  |  |  | 
5 | CN(C)CCCNc1c2ccccc2nc2cccc([N+](=O)[O-])c12 | 0.00198 | 0.0121 µM and 0.0944 µM | 0.0058 µM and 0.0531 µM |  | 0.00749 µM and 0.0452 µM | 0.00943 µM and 0.0426 µM |  | < 0.001 | 0.0721 |  | 0.0207 | 0.0175 |  |  |  |  |  |  | 
6 | C1#Cc2ccccc2OCCOc2ccccc2C#Cc2ccccc2OCCOc2ccccc21 | 37.8 | > 100 µM | 28.8 µM | > 100 | > 100 µM | 46.3 µM | > 100 | 58.7 | > 100 | > 100 |  |  |  |  |  |  |  |  | 
7 | COC(=O)C1(NC(=O)C(CC(=O)OCc2ccccc2)NC(=O)OC(C)(C)C)CC1 (centres undefined) (Boc-[ξD](OBn)-[Ac3c]-OMe) | > 100 | > 100 µM | > 100 µM | > 100 | > 100 µM | > 100 µM | > 100 | > 100 |  | > 100 |  |  |  |  |  |  |  |  | 
8 | Cc1cc2ccccc2n1CC(=O)N1CCCC1 |  | > 100 µM | > 100 µM | > 100 | > 100 µM | > 100 µM | > 100 | > 100 | > 100 | > 100 |  |  |  |  |  |  |  |  | 
9 | S=c1nc2[nH]c3ccc(Br)cc3c2n[nH]1 | > 100 | > 100 µM | > 100 µM | > 100 | > 100 µM | > 100 µM | > 100 | > 100 | 50.5 | > 100 |  |  |  |  |  |  |  |  | 
10 | O=C1CSC2=NCC3(NN12)c1ccccc1-c1ccccc13 |  | > 10 µM | > 10 µM | > 10 | > 10 µM | > 10 µM | > 10 | > 10 | > 10 | > 10 |  |  |  |  |  |  |  |  | 
11 | CC(=O)OCc1cc(=O)n(C)c2c3c4c(cc12)c(C)cc(=O)n4CO3 | 5.3 | 21.1 µM |  | 4.23 | 5.42 µM | 7.21 µM | 15.6 | 4.18 | 16.2 | 41.7 |  |  |  |  |  |  |  |  | 
12 | O=c1[nH]c2cc3cccnc3c(Cl)c2nc1C(F)(F)F | > 100 | > 100 µM | > 100 µM | > 100 | > 100 µM | > 100 µM | > 100 | 29.8 | > 100 | 63.7 |  |  |  |  |  |  |  |  | 
13 | O=c1[nH]c(=O)n(COCc2ccccc2)c2ccc(Br)cc12 | > 100 | > 100 µM | > 100 µM | > 100 | > 100 µM |  | > 100 | > 100 | > 100 | > 100 |  |  |  |  |  |  |  |  | 
14 | CC(C)(C)n1c(=O)n(C(=O)C(Cl)(Cl)Cl)n(C(=O)C(Cl)(Cl)Cl)c1=O |  | > 100 µM | > 100 µM | > 100 | > 100 µM | > 100 µM | > 100 | > 100 | > 100 | > 100 |  |  |  |  |  |  |  |  | 
15 | COc1ccc(C(=C(I)c2ccccc2)c2ccc(OC)cc2)cc1 |  | > 100 µM | > 100 µM | > 100 | > 100 µM | > 100 µM | > 100 | > 100 | > 100 | > 100 |  |  |  |  |  |  |  |  | 
16 | CSc1nc(NC2OCC(O)C(O)C2O)c(N)c(=O)n1C (centres undefined) | > 100 | > 100 µM |  | > 100 | > 100 µM | > 100 µM | > 100 | > 100 | > 100 | > 100 |  |  |  |  |  |  |  |  | 
17 | Nc1ccccc1NC(=O)CCCCCCC(=O)Nc1ccc2c(c1)/C(=C/c1ccc[nH]1)C(=O)N2 | > 100 | > 100 µM |  | > 100 | > 100 µM | > 100 µM | > 100 | > 100 | > 100 | > 100 | > 100 | 1.8 | 3.17 | > 100 | 43.8 | 6.64 | 40.8 | > 100 | 1.45
18 | Cc1ccc(C)c(COCCOCn2cc(Br)c(N)nc2=O)c1 | > 100 | > 100 µM | > 100 µM | > 100 | > 100 µM | > 100 µM | > 100 |  | > 100 | > 100 |  |  |  |  |  |  |  |  | 
19 | CC(NC(=O)OCc1ccccc1)NC(=O)C(CC(=O)OC(C)(C)C)NC(=O)OC(C)(C)C (centres undefined) | > 100 | > 100 µM | > 100 µM | > 100 | > 100 µM | > 100 µM | > 100 | > 100 |  | > 100 |  |  |  |  |  |  |  |  | 
20 | CCOC(=O)c1c2c(n(-c3ccc(OC)cc3)c1C)C(=O)C(=O)c1ccccc1-2 | 3.97 | 4.46 µM | 3.5 µM | 5.31 | 1.11 µM | 3.76 µM | 8.09 | 2.59 |  | 3.61 |  |  | 1.76 |  |  |  |  |  | 
21 | Cc1cc(=O)n2nc(CSc3nnc(N)s3)sc2n1 |  | > 100 µM | > 100 µM | > 100 | > 100 µM | > 100 µM | > 100 | > 100 | > 100 | > 100 |  |  |  |  |  |  |  |  | 
